The results in this text go back to ChEMBL document CHEMBL2401643, “The discovery of potent selective NPY Y(2) antagonists” (Bioorg Med Chem Lett, 2013).

A short description of series [1]: Metabolic stability in human liver microsomes assessed as compound remaining after 15 mins. To be noted: read-out: Stability. In kind it is ADME, Microsome. On the technique in general: Liver microsomes are a subcellular fraction often used to study metabolism.
Series [2] is described as follows: Metabolic stability in rat liver microsomes assessed as compound remaining after 15 mins. Format: ADME, Microsome. Particulars: read-out: Stability.
The target of series [3] is T1, Neuropeptide Y receptor type 2 (Homo sapiens, UniProt P49146).
T1 sequence (P49146 whole entry): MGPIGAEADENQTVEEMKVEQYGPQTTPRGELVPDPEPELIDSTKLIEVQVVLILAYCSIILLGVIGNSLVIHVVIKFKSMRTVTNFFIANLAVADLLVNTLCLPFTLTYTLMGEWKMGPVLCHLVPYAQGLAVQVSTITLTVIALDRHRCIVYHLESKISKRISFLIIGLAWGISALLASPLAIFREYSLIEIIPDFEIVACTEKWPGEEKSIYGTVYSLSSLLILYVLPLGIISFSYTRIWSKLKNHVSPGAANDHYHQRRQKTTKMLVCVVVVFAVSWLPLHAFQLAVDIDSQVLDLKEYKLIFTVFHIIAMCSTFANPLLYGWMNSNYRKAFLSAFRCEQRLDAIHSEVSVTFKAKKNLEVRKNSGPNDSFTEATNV
Nature of the series: (§1) Displacement of [125I]PYY from NPY-Y2 receptor in human KAN-TS cell membranes after 1 hr by scintillation counting analysis. On the technique in general: Loss of bound radioactivity is the signal in a displacement assay; it reports binding, not function.

Series [4] concerns the target T2, Microsomal triglyceride transfer protein large subunit (Homo sapiens, UniProt P55157).
T2 sequence (P55157 whole entry): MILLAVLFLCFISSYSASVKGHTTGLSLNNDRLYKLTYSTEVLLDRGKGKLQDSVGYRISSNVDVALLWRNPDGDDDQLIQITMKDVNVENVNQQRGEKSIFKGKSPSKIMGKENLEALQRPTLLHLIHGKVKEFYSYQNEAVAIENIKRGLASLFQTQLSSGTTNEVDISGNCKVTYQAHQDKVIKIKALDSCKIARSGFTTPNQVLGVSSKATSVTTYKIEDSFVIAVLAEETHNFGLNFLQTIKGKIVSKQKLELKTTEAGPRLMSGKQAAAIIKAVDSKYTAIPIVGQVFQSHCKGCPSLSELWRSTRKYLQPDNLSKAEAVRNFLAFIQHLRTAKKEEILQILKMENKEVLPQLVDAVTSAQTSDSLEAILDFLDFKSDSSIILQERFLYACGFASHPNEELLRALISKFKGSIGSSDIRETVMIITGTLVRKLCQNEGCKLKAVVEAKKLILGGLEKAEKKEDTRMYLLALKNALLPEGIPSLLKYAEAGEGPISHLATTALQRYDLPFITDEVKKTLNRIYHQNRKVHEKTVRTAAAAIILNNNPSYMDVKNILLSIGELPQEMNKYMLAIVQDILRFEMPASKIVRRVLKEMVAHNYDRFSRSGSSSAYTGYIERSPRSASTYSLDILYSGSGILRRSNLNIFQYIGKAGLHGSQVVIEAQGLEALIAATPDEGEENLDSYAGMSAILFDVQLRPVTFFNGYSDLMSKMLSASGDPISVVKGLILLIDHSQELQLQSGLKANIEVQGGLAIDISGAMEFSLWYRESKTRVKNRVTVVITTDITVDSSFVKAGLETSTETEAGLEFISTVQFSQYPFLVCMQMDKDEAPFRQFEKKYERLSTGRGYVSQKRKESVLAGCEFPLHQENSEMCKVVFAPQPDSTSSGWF
Briefly: Inhibition of MTP (unknown origin).

Series [5] has as its target T1, Neuropeptide Y receptor type 2. Nature of the series: Antagonist activity at NPY-Y2 receptor in human KAN-TS cell membranes assessed as inhibition of PYY-stimulated [35S]GTPgammaS binding preincubated for 30 mins prior to [35S]GTPgammaS-treatment measured after 1 hr. Format: functional. Particulars: read-out: pA2 (converted). (GTPγS resists hydrolysis and so accumulates on activated G proteins.)

The test system of the next series is Rattus norvegicus. Briefly: Receptor occupancy in Sprague-Dawley rat brain at 10 mg/kg, sc by LC/MS analysis. Format: functional.
Series [6] deals with T2, Microsomal triglyceride transfer protein large subunit. Briefly: Inhibition of MTP (unknown origin)-mediated triglyceride transfer from donor to acceptor vesicles preincubated for 5 mins followed by enzyme addition by [14C]-counting analysis.
Series [7] concerns the target T3, Neuropeptide Y receptor type 2 (Homo sapiens) (UniProt P49146).
T3 sequence (whole entry): T1 sequence (P49146 whole entry)
The description is as §1.

Activity calls are given as the source filed them. The calls are words filed in the database; no cut-off is given here.

Broadly, the IC50 is the concentration at which inhibition is half-maximal. Take `CCN(CC)C(=O)C(c1ccccc1)C1CCN(c2ccc(NC(=O)c3ccccc3-c3cccnc3)cc2F)CC1` (centres undefined): the remaining at 0.25 h in series [1] came to 73%; in series [2], 98%. The same compound displayed an IC50 in series [3] of 7 nM.

On to `CCNC(=O)C(c1ccccc1)C1CCN(c2ccc(C(=O)Nc3ccccc3-c3ccccc3)cc2F)CC1` (centres undefined), for which the half-inhibitory concentration (IC50) in series [3] came to 45 nM.

Turning to `CCN(CC)C(=O)C(c1ccccc1)N1CCN(c2ccc(NC(=O)c3ccccc3-c3cccnc3)cc2F)CC1` (centres undefined), the remaining at 0.25 h in series [1] was 1.4%; in series [2] it was 1.7%. In addition, half-maximal inhibition in series [4] (IC50) was put at 710 nM.

Turning to `CCNC(=O)C(c1ccccc1)C1CCN(c2ccc(NC(=O)Nc3ccccc3-c3ccccc3)cc2F)CC1` (centres undefined), in series [3], the IC50 is 27 nM.

With `CCNC(=O)C(c1ccccc1)C1CCN(c2ccc(NC(=O)c3ccccc3Br)cc2F)CC1` (centres undefined), the half-maximal inhibitory concentration (IC50) in series [3] amounted to 665 nM.

For `CCNC(=O)C(c1ccccc1)C1CCN(c2ccc(NC(=O)Nc3c(C)noc3C)cc2F)CC1` (centres undefined), in series [5], the Kb is 3.98 nM. The Occ entry in the series on Rattus norvegicus is “inactive”. For the same compound, the half-inhibitory concentration (IC50) in series [6] was > 10000 nM.

For `CCN(CC)C(=O)C(c1ccccc1)C1CCN(c2ccc(NC(=O)Nc3c(C)noc3C)cc2F)CC1` (centres undefined), the remaining at 0.25 h in series [1] was found to be 1.5%; in series [2], 17%. In addition, the concentration for half-maximal inhibition (IC50) is 12 nM in series [3] and > 10000 nM in series [6]. In series [5], the Kb is 2 nM. In addition, in the series with Rattus norvegicus, the Occ entry was “inactive”.

As to `CCNC(=O)C(c1ccccc1)C1CCN(c2ccc(NC(=O)c3ccccc3-c3ccccc3)cc2F)CC1` (centres undefined), in series [3], the 50% inhibitory concentration (IC50) stood at 12 nM.

For the compound `CCN(CC)C(=O)C(c1ccccc1)C1CCN(c2ccc(NC(=O)c3c(C)noc3C)cc2F)CC1` (centres undefined), the remaining at 0.25 h in series [1] is 5.3%; in series [2], 3.3%. In addition, the half-maximal inhibitory concentration (IC50) in series [3] was 37 nM; in series [6], > 10000 nM. Further, in series [5], the Kb is 31.6 nM. This compound also came in with an Occ in the series with Rattus norvegicus (route subcutaneous) of 50%.

The compound `CCNC(=O)C(c1ccccc1)C1CCN(c2ccc(NC(=O)c3c(C)noc3C)cc2F)CC1` (centres undefined) returned an IC50 in series [3] of 476 nM.

Regarding `CCNC(=O)C(c1ccccc1)C1CCN(c2ccc(NS(=O)(=O)c3ccccc3-c3ccccc3)cc2F)CC1` (centres undefined), the result in series [7] was inactive.

In series [3], `CCNC(=O)C(c1ccccc1)C1CCN(c2ccc(NC(=O)c3ccccc3-c3ccsc3)cc2F)CC1` (centres undefined) gave a half-maximal inhibitory concentration (IC50) of 70 nM.

The compound `CCNC(=O)C(c1ccccc1)C1CCN(c2ccc(NC(=O)c3ccccc3-c3cccnc3)cc2F)CC1` (centres undefined) displayed a 50% inhibitory concentration (IC50) in series [3] of 24 nM.
